What was measured:
[1] = tested on: Rattus norvegicus; test: […] antihypertensive activity in renal hypertensive rat at 0.5 mg/kg after 7 hr of oral administration.; assay type: functional
[2] = tested on: Rattus norvegicus; test: In vivo antihypertensive activity in renal hypertensive rat at 1.0 mg/kg after 5 hr of oral administration.
[3] = tested on: Rattus norvegicus; test: […] antihypertensive activity in renal hypertensive rat at 0.5 mg/kg after 24 hr of oral administration.; assay type: functional
[4] = target: T1, Angiotensin II receptor (Rattus norvegicus, UniProt P29089+P25095+P35351); test: Tested for in vitro binding affinity against angiotensin II receptor of rat liver
T1 sequence (P29089 whole entry): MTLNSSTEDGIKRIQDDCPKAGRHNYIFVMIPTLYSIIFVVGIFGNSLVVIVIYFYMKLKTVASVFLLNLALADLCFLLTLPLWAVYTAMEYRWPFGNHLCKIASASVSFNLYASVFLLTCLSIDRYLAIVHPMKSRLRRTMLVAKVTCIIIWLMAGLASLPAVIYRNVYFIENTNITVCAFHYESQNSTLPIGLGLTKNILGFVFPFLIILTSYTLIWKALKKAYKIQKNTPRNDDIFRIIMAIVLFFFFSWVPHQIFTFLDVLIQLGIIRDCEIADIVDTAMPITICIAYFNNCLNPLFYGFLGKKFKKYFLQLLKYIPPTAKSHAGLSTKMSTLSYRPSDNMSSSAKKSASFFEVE
T1 sequence (P25095 whole entry): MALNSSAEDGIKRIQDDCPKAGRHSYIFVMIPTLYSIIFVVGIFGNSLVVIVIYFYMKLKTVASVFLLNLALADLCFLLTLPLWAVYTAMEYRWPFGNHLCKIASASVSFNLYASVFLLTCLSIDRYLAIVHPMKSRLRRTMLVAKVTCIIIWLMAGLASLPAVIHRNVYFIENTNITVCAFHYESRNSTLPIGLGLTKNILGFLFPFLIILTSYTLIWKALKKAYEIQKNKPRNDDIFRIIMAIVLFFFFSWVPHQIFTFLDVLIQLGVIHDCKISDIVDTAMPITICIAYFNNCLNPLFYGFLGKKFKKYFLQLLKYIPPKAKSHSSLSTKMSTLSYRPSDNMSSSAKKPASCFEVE
T1 sequence (P35351 whole entry): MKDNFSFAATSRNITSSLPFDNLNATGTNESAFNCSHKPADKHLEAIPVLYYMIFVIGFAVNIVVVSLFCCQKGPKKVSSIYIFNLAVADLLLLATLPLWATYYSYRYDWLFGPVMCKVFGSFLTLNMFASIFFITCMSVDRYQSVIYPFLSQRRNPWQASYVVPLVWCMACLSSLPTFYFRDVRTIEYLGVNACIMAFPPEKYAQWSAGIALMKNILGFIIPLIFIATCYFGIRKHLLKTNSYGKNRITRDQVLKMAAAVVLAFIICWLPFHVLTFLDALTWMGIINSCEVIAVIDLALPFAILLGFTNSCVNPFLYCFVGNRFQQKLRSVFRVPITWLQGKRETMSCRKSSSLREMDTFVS

[5] = Half-life in plasma of rat at dose of […]-[…] mgkg; assay type: ADME, organism-based
[6] = Bioavailability in rat (dose 3-10 mg/kg); assay type: ADME, organism-based; conditions: in vivo
[7] = The compound was tested for plasma clearance in rat at dose of 3-10 mgkg; assay type: ADME, organism-based
[8] = The compound was tested for volume of distribution in rat at dose of 3-10 mgkg; assay type: ADME, organism-based; conditions: in vivo
[9] = tested on: Rattus norvegicus; test: […] antihypertensive activity in renal hypertensive rat at 0.5 mg/kg after 5 hr of oral administration.; assay type: functional
[10] = The compound was tested for plasma clearance in dog at dose of 3-10 mgkg; assay type: ADME, organism-based, Canis lupus familiaris
[11] = Half-life in plasma of dog at dose of […]-[…] mgkg; assay type: ADME, organism-based, Canis lupus familiaris
[12] = Bioavailability in dog (dose 3-10 mg/kg); assay type: ADME, organism-based, Canis lupus familiaris; conditions: in vivo
[13] = The compound was tested for volume of distribution in dog at dose of 3-10 mgkg; assay type: ADME, organism-based, Canis lupus familiaris; conditions: in vivo
[14] = Bioavailability in rat; assay type: ADME, organism-based; conditions: in vivo
[15] = The compound was tested for plasma clearance in rat; assay type: ADME, organism-based
[16] = Half-life in plasma of rat; assay type: ADME, organism-based
[17] = The compound was tested for volume of distribution in rat; assay type: ADME, organism-based; conditions: in vivo
[18] = The compound was tested for plasma clearance in dog; assay type: ADME, organism-based, Canis lupus familiaris
[19] = Half-life in plasma of dog; assay type: ADME, organism-based, Canis lupus familiaris
[20] = The compound was tested for volume of distribution in dog; assay type: ADME, organism-based, Canis lupus familiaris; conditions: in vivo
[21] = tested on: Rattus norvegicus; test: Tested for […] antihypertensive activity in renal hypertensive rat at 1 mg/kg after 24 hr of oral administration; assay type: functional
[22] = tested on: Rattus norvegicus; test: Tested for […] antihypertensive activity in renal hypertensive rat at 1 mg/kg after 7 hr of oral administration; assay type: functional
[23] = tested on: Rattus norvegicus; test: Tested for […] antihypertensive activity in renal hypertensive rat at 1 mg/kg after 5 hr of oral administration; assay type: functional

| Log Ki [4] | Compound | Activity [1] | Activity [3] | Activity [9] | also measured |
| --- | --- | --- | --- | --- | --- |
| -8.9 | CCc1nc(C2CC2)c(C(N)=O)n1Cc1ccc2oc(-c3ccccc3NS(=O)(=O)C(F)(F)F)c(Cl)c2c1 | -60 | -42 |  | Activity [2]: -57 |
|  | CCCCc1nc(Cl)c(CO)n1Cc1ccc2oc(-c3ccccc3-c3nn[nH]n3)c(Br)c2c1 |  |  |  | half-life [5]: 1 h; bioavailability [6]: 37%; clearance [7]: 18 mL/min/kg; Vd [8]: 1.3 L/kg |
| -7.7 | CCc1nc(CC(C)C)c(C(N)=O)n1Cc1ccc2oc(-c3ccccc3NS(=O)(=O)C(F)(F)F)c(Br)c2c1 | -19 | -8 | -4 |  |
|  | CCCCc1nc(Cl)c(CO)n1Cc1ccc(-c2ccccc2-c2nnn[nH]2)cc1 [LOSARTAN] | -41 | -36 | -30 |  |
|  | CCOC(=O)c1c(C)nc(CC)n1Cc1ccc2oc(-c3ccccc3-c3nn[nH]n3)c(Br)c2c1 |  |  |  | clearance [10]: ~100 mL/min/kg; half-life [11]: 0.2 h; bioavailability [12]: 70%; Vd [13]: 2 L/kg |
| -9.1 | CCc1nc(CC)n(Cc2ccc3oc(-c4ccccc4NS(=O)(=O)C(F)(F)F)c(Br)c3c2)c1C(N)=O | -38 | -17 | -35 |  |
| -8.4 | CCc1nc(C(C)C)c(C(N)=O)n1Cc1ccc2oc(-c3ccccc3NS(=O)(=O)C(F)(F)F)c(Br)c2c1 | -22 | -13 | -21 |  |
| -9.5 | CCCc1nc(C)c(C(=O)NCC)n1Cc1ccc2oc(-c3ccccc3NS(=O)(=O)C(F)(F)F)c(Br)c2c1 | -48 | -30 | -33 | bioavailability [14]: 90%; clearance [15]: 29 mL/min/kg; half-life [16]: 4.5 h; Vd [17]: 11 L/kg |
| -9 | CCCc1nc(C)c(C(=O)NC)n1Cc1ccc2oc(-c3ccccc3NS(=O)(=O)C(F)(F)F)c(Br)c2c1 | -50 | -12 | -30 |  |
| -8.7 | CCCc1nc(Cl)c(C(N)=O)n1Cc1ccc2oc(-c3ccccc3NS(=O)(=O)C(F)(F)F)c(Br)c2c1 | -28 | 9 | -19 |  |
| -9.3 | CCc1nc(C2CC2)c(C(N)=O)n1Cc1ccc2oc(-c3ccccc3NS(=O)(=O)C(F)(F)F)c(Br)c2c1 | -76 | -38 | -66 | clearance [18]: 1.6 mL/min/kg; half-life [19]: 9.3 h; Vd [20]: 0.9 L/kg |
| -9 | CCCc1nc(Cl)c(C(=O)NCC)n1Cc1ccc2oc(-c3ccccc3NS(=O)(=O)C(F)(F)F)c(Br)c2c1 | -54 | -13 | -40 |  |
|  | CCc1nc(C)c(C(=O)O)n1Cc1ccc2oc(-c3ccccc3-c3nn[nH]n3)c(Br)c2c1 |  |  |  | clearance [10]: 6 mL/min/kg; half-life [11]: 4 h; bioavailability [12]: 8%; Vd [13]: 2 L/kg |
|  | CCCCc1nc(Cl)c(C(=O)NC)n1Cc1ccc2oc(-c3ccccc3-c3nn[nH]n3)c(Br)c2c1 |  |  |  | clearance [10]: 11 mL/min/kg; half-life [11]: 0.5 h; bioavailability [12]: 36%; Vd [13]: 0.3 L/kg |
| -8.6 | CCc1nc(Cl)c(C(=O)NC)n1Cc1ccc2oc(-c3ccccc3NS(=O)(=O)C(F)(F)F)c(Br)c2c1 | -31 | -4 | -30 |  |
| -8.5 | CCc1nc(Cl)c(C(N)=O)n1Cc1ccc2oc(-c3ccccc3NS(=O)(=O)C(F)(F)F)c(Br)c2c1 | -55 | -12 | -57 |  |
| -8.9 | CCCc1nc(Cl)c(C(=O)NC)n1Cc1ccc2oc(-c3ccccc3NS(=O)(=O)C(F)(F)F)c(Br)c2c1 | -61 | -19 | -67 |  |

| Log Ki [4] | Compound | Activity [1] | Activity [3] | Activity [9] | also measured |
| --- | --- | --- | --- | --- | --- |
| -9.1 | CCCc1nc(C)c(C(N)=O)n1Cc1ccc2oc(-c3ccccc3NS(=O)(=O)C(F)(F)F)c(Br)c2c1 | -37 | -8 | -38 |  |
| -7.5 | CNC(=O)c1c(C)nc(C)n1Cc1ccc2oc(-c3ccccc3NS(=O)(=O)C(F)(F)F)c(Br)c2c1 | 0 | -3 | 6 |  |
| -8.9 | CCNC(=O)c1c(C)nc(CC)n1Cc1ccc2oc(-c3ccccc3NS(=O)(=O)C(F)(F)F)c(Br)c2c1 | -33 | 4 | -17 |  |
| -8.5 | CCc1nc(C)c(C(=O)NC)n1Cc1ccc2oc(-c3ccccc3NS(=O)(=O)C(F)(F)F)c(Br)c2c1 | -54 | -6 | -43 |  |
| -8.8 | CCCCc1nc(Cl)c(C(=O)NC)n1Cc1ccc2oc(-c3ccccc3NS(=O)(=O)C(F)(F)F)c(Br)c2c1 |  |  |  | Activity [21]: 7; Activity [22]: -45; Activity [23]: -40 |
| -8.6 | CCc1nc(C)c(C(=O)N(C)C)n1Cc1ccc2oc(-c3ccccc3NS(=O)(=O)C(F)(F)F)c(Br)c2c1 | 2 | 1 | 1 |  |
| -9 | CCc1nc(C2CC2)c(C(N)=O)n1Cc1ccc2oc(-c3ccccc3NS(=O)(=O)C(F)(F)F)c(C(F)(F)F)c2c1 | -49 | -17 |  | Activity [2]: -48 |
| -8.8 | CCc1c(-c2ccccc2NS(=O)(=O)C(F)(F)F)oc2ccc(Cn3c(CC)nc(C4CC4)c3C(N)=O)cc12 | -42 | -2 | -37 |  |
|  | CCCCc1nc(Cl)c(C(=O)O)n1Cc1ccc2oc(-c3ccccc3-c3nn[nH]n3)c(Br)c2c1 [ZOLASARTAN] |  |  |  | clearance [10]: 6 mL/min/kg; half-life [11]: 2.5 h; bioavailability [12]: 9%; Vd [13]: 1.2 L/kg |
| -8.7 | CCNC(=O)c1c(Cl)nc(CC)n1Cc1ccc2oc(-c3ccccc3NS(=O)(=O)C(F)(F)F)c(Br)c2c1 | -43 | -12 | -37 |  |
| -9.4 | CCNC(=O)c1c(C2CC2)nc(CC)n1Cc1ccc2oc(-c3ccccc3-c3nn[nH]n3)c(Br)c2c1 | -9 | -1 | -8 |  |
| -8.9 | CCc1nc(C)c(C(N)=O)n1Cc1ccc2oc(-c3ccccc3NS(=O)(=O)C(F)(F)F)c(Br)c2c1 | -61 | -3 | -40 |  |
| -9.4 | CCc1nc(C2CC2)c(C(=O)NC)n1Cc1ccc2oc(-c3ccccc3NS(=O)(=O)C(F)(F)F)c(Br)c2c1 | -52 | -9 | -60 |  |
| -9.2 | CCNC(=O)c1c(C2CC2)nc(CC)n1Cc1ccc2oc(-c3ccccc3NS(=O)(=O)C(F)(F)F)c(Br)c2c1 | -63 | -14 | -53 |  |
| -7 | CCc1nc(C2CC2)c(C(N)=O)n1Cc1ccc2oc(-c3ccccc3NS(=O)(=O)C(F)(F)F)cc2c1 | -16 | 7 | -18 |  |
| -9.9 | CCc1nc(C2CC2)c(C(=O)NCC(C)C)n1Cc1ccc2oc(-c3ccccc3NS(=O)(=O)C(F)(F)F)c(Br)c2c1 | -70 | -47 | -63 |  |
| -8.6 | CCNC(=O)c1c(C2CC2)nc(CC)n1Cc1ccc2oc(-c3ccccc3C(=O)O)c(Br)c2c1 |  |  |  | Activity [21]: 4; Activity [22]: 0; Activity [23]: 6 |

From ChEMBL document CHEMBL1127854, “Bromobenzofuran-based non-peptide antagonists of angiotensin II: GR138950, a potent antihypertensive agent with high oral bioavailability” (J Med Chem, 1994)
